Our source for the IC50, Activity and activity values is ChEMBL document CHEMBL4680342, “Discovery of DB18, a potent inhibitor of CLK kinases with a high selectivity against DYRK1A kinase” (Bioorg Med Chem, 2021).

One data set has as its system MCF7. Description: cells. Conditions: Homo sapiens, MCF7, 48 h.
A further data set relates to Huh-7. Description: cells. Conditions: Homo sapiens, Huh-7, 48 h.
The subject of the next data set is Fibroblast. Description: cells. To be noted: Homo sapiens, 48 h.
A further data set relates to MDA-MB-231. Description: cells. To be noted: Homo sapiens, MDA-MB-231, 48 h.
Data set [1] concerns the target Casein kinase I isoform epsilon (Homo sapiens) (UniProt P49674). Description: Inhibition of human CK1epsilon assessed as residual activity at 10 uM by ADP-Glo assay relative to control.
Data set [2] concerns the target Cyclin-dependent kinase 5/CDK5 activator 1 (Homo sapiens) (UniProt Q00535+Q15078). Description: Inhibition of human CDK5/p25 assessed as residual activity at 10 uM by ADP-Glo assay relative to control. It is filed as protein-complex assay. (ADP-Glo turns the ADP formed in a reaction into a luminescent signal.)
For data set [3], the target named is Serine/threonine-protein kinase pim-1 (Homo sapiens) (UniProt P11309). Description: Inhibition of human PIM1 assessed as residual activity at 10 uM by ADP-Glo assay relative to control.
Data set [4] concerns the target CDK9/cyclin T1 (Homo sapiens) (UniProt O60563+P50750). Description: Inhibition of human CDK9/CyclinT assessed as residual activity at 10 uM by ADP-Glo assay relative to control. It is filed as protein-complex assay.
In data set [5] the target is DYRK1A (dual specificity tyrosine-phosphorylation-regulated kinase 1A) (Rattus norvegicus, UniProt Q63470). Description: Inhibition of rat DYRK1A (1 to 499 residues) assessed as residual activity at 10 uM by ADP-Glo assay relative to control. To be noted: rat DYRK1A enzyme (residues 1 to 499), read-out: Activity.
In data set [6] the target is Glycogen synthase kinase-3 beta (Homo sapiens) (UniProt P49841). Description: Inhibition of human GSK3beta assessed as residual activity at 10 uM by ADP-Glo assay relative to control.
Another data set concerns PC-3. Description: cells. To be noted: Homo sapiens, PC-3, 48 h.
The next data set concerns NCI-H727. Description: cells. To be noted: Homo sapiens, NCI-H727, 48 h.
The next data set has as its system Caco-2. Description: cells. To be noted: Homo sapiens, Caco-2, 48 h.
Data set [7] has as its target Dual specificity protein kinase CLK1 (Mus musculus) (UniProt P22518). Description: Inhibition of mouse CLK1 assessed as residual activity at 10 uM by ADP-Glo assay relative to control.
The subject of the next data set is HCT-116. Description: cells. To be noted: Homo sapiens, HCT-116, 48 h.
Data set [8] concerns the target T1, Serine/threonine-protein kinase haspin (Homo sapiens) (UniProt Q8TF76).
T1 sequence (whole entry): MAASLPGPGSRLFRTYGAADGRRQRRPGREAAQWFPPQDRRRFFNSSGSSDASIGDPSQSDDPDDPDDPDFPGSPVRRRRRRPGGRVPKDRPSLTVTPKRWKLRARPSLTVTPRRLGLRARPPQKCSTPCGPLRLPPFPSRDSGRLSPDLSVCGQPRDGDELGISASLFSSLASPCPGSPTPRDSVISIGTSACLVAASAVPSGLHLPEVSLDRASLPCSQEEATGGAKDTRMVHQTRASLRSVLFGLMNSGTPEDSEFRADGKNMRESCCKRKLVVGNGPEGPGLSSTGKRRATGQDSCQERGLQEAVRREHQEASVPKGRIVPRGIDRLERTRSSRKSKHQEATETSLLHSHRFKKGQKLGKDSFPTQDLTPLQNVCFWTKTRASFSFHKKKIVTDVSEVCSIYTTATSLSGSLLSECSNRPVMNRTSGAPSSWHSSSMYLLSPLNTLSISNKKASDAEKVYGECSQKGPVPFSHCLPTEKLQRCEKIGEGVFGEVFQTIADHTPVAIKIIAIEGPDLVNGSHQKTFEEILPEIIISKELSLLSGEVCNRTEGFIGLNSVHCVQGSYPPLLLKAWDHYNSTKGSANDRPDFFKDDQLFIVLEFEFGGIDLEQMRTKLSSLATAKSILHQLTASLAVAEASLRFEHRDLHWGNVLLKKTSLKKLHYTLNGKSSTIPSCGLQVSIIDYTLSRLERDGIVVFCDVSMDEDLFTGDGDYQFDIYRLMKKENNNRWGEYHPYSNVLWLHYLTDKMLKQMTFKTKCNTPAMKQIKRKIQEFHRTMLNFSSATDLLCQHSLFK
Description: Inhibition of human HASPIN assessed as residual activity at 10 uM by ADP-Glo assay relative to control.

Sequence of Cyclin-dependent kinase 5/CDK5 activator 1 (Homo sapiens) (Q00535 whole entry): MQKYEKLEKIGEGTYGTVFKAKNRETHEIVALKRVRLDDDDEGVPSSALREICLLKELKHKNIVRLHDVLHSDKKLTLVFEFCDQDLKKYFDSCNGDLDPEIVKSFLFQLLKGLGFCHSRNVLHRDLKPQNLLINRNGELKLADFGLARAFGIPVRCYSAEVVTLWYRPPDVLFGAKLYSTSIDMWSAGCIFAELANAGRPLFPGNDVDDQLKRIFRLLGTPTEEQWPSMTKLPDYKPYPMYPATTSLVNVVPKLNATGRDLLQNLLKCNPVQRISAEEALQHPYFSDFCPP
Sequence of Cyclin-dependent kinase 5/CDK5 activator 1 (Homo sapiens) (Q15078 99-307 partner limits assumed): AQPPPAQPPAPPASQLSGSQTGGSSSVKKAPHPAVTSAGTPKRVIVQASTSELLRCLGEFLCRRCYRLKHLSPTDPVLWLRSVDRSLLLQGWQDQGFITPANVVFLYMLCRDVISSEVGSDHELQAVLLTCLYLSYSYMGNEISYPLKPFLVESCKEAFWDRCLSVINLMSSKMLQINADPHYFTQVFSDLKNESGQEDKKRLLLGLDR
Sequence of Serine/threonine-protein kinase pim-1 (Homo sapiens) (P11309 whole entry, looked up): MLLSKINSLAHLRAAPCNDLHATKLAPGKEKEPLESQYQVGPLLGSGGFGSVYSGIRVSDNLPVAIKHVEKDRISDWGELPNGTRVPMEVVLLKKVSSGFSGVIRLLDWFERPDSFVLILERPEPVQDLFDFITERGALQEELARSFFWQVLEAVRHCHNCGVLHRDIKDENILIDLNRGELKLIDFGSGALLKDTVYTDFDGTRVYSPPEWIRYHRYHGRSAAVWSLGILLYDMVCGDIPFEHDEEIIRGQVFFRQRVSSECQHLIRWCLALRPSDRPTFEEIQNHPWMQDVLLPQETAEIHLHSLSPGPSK
Sequence of Dual specificity protein kinase CLK1 (Mus musculus) (P22518 whole entry, looked up): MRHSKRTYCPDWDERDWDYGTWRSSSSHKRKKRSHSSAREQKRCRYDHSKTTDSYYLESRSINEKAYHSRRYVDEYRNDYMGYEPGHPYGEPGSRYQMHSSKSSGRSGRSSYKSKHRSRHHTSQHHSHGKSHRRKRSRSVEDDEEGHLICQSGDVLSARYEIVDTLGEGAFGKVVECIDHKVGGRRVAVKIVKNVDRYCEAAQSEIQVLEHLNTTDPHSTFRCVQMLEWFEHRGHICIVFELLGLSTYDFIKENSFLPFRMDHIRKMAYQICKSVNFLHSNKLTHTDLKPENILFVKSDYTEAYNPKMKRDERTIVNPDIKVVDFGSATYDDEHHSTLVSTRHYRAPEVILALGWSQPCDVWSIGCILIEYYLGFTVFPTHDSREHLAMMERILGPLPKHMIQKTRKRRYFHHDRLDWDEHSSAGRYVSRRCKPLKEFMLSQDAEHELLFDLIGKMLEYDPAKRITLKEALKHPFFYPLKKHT
Sequence of Glycogen synthase kinase-3 beta (Homo sapiens) (P49841 whole entry, looked up): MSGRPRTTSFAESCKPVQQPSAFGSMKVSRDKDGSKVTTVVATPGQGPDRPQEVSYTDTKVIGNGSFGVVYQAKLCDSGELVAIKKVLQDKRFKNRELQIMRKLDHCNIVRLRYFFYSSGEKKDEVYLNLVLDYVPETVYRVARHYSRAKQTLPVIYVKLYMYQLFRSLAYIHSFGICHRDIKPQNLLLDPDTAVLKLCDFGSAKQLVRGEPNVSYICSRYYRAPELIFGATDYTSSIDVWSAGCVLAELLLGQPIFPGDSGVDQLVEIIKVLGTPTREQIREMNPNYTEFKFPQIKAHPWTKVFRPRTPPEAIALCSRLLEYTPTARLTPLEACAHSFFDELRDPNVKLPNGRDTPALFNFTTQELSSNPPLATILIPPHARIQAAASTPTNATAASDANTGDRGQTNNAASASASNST
Sequence of Casein kinase I isoform epsilon (Homo sapiens) (P49674 whole entry, looked up, canonical isoform): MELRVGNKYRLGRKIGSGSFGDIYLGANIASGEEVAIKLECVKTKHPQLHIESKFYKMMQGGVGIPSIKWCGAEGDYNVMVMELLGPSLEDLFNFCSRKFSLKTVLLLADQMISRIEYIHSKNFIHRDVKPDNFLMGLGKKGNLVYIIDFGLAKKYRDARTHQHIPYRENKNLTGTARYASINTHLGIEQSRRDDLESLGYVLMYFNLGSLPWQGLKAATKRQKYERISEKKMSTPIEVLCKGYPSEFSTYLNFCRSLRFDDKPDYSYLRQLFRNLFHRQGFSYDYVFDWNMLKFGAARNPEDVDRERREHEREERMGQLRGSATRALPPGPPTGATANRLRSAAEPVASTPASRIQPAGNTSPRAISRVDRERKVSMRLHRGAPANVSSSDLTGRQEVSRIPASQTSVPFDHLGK
Description for Fibroblast: Cytotoxicity against human Fibroblast cells assessed as reduction in cell viability incubated for 48 hrs by Hoechst-33342 staining based cell counting method (Rvb > 25 microM)
Description for HCT-116: Cytotoxicity against human HCT-116 cells assessed as reduction in cell viability incubated for 48 hrs by Hoechst-33342 staining based cell counting method (Rvb > 25 microM)
Description for MDA-MB-231: Cytotoxicity against human MDA-MB-231 cells assessed as reduction in cell viability incubated for 48 hrs by Hoechst-33342 staining based cell counting method (Rvb > 25 microM)
Description for NCI-H727: Cytotoxicity against human NCI-H727 cells assessed as reduction in cell viability incubated for 48 hrs by Hoechst-33342 staining based cell counting method (Rvb > 25 microM)
Description for PC-3: Cytotoxicity against human PC-3 cells assessed as reduction in cell viability incubated for 48 hrs by Hoechst-33342 staining based cell counting method (Rvb > 25 microM)

As a reminder, the IC50 is the point on the concentration scale where inhibition reaches its midpoint. For the molecule `COc1cccc(-n2cc(COc3cccc4cnc(Nc5cccc(Cl)c5)nc34)nn2)c1`, the IC50 is 8 µM in the data set on MCF7; 23 µM in the data set on Huh-7; 18 µM with Fibroblast; 25 µM in the data set with MDA-MB-231; 10 µM with PC-3; above 25 µM in the data set on NCI-H727. The IC50 with Caco-2 came out at 20 µM; in the data set on HCT-116, 23 µM. Also, the Activity turned out to be 40% in data set [1]; 94% in data set [2]; 79% in data set [3]; 85% in data set [4]; 47% in data set [6]; 27% in [7]. Further, in data set [8], the Activity stood at 100%. Further, the activity at 10 µM in data set [5] came to 87%.
On to `Clc1cccc(Nc2ncc3cccc(OCc4cn(Cc5c(Cl)cccc5Cl)nn4)c3n2)c1`, for which the IC50 in the data set with MCF7 is 6 µM; with Huh-7, 7 µM; in the data set with Fibroblast, 14 µM; in the data set with MDA-MB-231 it was 21 µM; with PC-3, 7 µM; in the data set with NCI-H727, 5 µM. The 50% inhibitory concentration (IC50) in the data set with Caco-2 was 9 µM; in the data set on HCT-116, 24 µM. Besides, the Activity in data set [1] worked out at 100%; in data set [2] it was 94%; in data set [3], 97%; in data set [4] it was 53%; in data set [6] it was 58%; in data set [7], 48%. Besides, the Activity in data set [8] was found to be 59%. The activity at 10 µM in data set [5] is 75%.
On to `COc1ccccc1-n1cc(COc2cccc3cnc(Nc4cccc(Cl)c4)nc23)nn1`, for which the concentration for half-maximal inhibition (IC50) is 6 µM with MCF7; 7 µM in the data set with Huh-7; above 25 µM with Fibroblast; above 25 µM in the data set on MDA-MB-231; 8 µM in the data set with PC-3; above 25 µM in the data set on NCI-H727. In addition, the concentration for half-maximal inhibition (IC50) with Caco-2 and in the data set with HCT-116 was above 25 µM each time. The Activity is 96% in [1]; 94% in data set [2]; 84% in data set [3]; 74% in data set [4]; 61% in data set [6]; 26% in [7]. Besides, the Activity in [8] was 100%. For the same molecule, the activity at 10 µM in data set [5] came to 100%.
In the case of `Clc1cccc(Nc2ncc3cccc(OCc4cn(-c5cc(Cl)cc(Cl)c5)nn4)c3n2)c1`, the IC50 in the data set on MCF7 came out at 5 µM; in the data set with Huh-7 it was 7 µM; with Fibroblast, 8 µM; in the data set with MDA-MB-231 it was 9 µM; with PC-3, 8 µM; in the data set on NCI-H727, 7 µM. The IC50 with Caco-2 and with HCT-116 was 8 µM in each case. The Activity in data set [1] turned out to be 55%; in [2], 90%; in data set [3] it was 78%; in [4], 64%; in data set [6] it was 35%; in data set [7], 81%. Moreover, in data set [8], the Activity was determined as 77%. Also, the activity at 10 µM in data set [5] was 100%.
As for `COc1cccc2c1C(=O)c1c(O)c3c(c(O)c1C2=O)C[C@@](O)(C(=O)CO)C[C@@H]3O[C@H]1C[C@H](N)[C@H](O)[C@H](C)O1` [DOXORUBICIN], the IC50 with Huh-7 came out at 0.036 µM; with Fibroblast, 0.015 µM; in the data set on MDA-MB-231, 0.01 µM; with PC-3, 0.06 µM; in the data set on Caco-2 it was 0.05 µM.
Consider `CC[C@H](CO)Nc1nc(NCc2ccccc2)c2ncn(C(C)C)c2n1` [SELICICLIB], for which the half-maximal inhibitory concentration (IC50) in the data set on MCF7 came out at 9 µM; with Huh-7 it was 14 µM; in the data set on Fibroblast it was 6 µM; in the data set with NCI-H727 it was 28 µM.
`Clc1cccc(Nc2ncc3cccc(OCc4cn(-c5ccc(Br)cc5)nn4)c3n2)c1`: the half-maximal inhibitory concentration (IC50) in the data set with MCF7 was 9 µM; in the data set with Huh-7, 14 µM; in the data set with Fibroblast it was above 25 µM; in the data set with MDA-MB-231, 33 µM; in the data set with PC-3, 18 µM; in the data set with NCI-H727 it was 8 µM. For the same molecule, the IC50 stood at 11 µM with Caco-2 and 17 µM in the data set with HCT-116. The Activity in [1] came to 79%; in [2], 100%; in [3], 79%; in data set [4], 81%; in data set [6], 77%; in data set [7] it was 56%. In data set [8], the Activity was 100%. Moreover, the activity at 10 µM in data set [5] was found to be 95%.
Regarding `CC(=O)O[C@H]1C(=O)[C@@]2(C)[C@H]([C@H](OC(=O)c3ccccc3)[C@]3(O)C[C@H](OC(=O)[C@H](O)[C@@H](NC(=O)c4ccccc4)c4ccccc4)C(C)=C1C3(C)C)[C@]1(OC(C)=O)CO[C@@H]1C[C@@H]2O` [PACLITAXEL], the IC50 worked out at 0.013 µM in the data set on Huh-7; 0.1 µM in the data set on Fibroblast; 0.03 µM with MDA-MB-231; 0.002 µM in the data set with PC-3; 0.01 µM in the data set with NCI-H727; 0.014 µM in the data set with Caco-2. The half-inhibitory concentration (IC50) in the data set on HCT-116 worked out at 0.002 µM.
Consider `Clc1ccc(-n2cc(COc3cccc4cnc(Nc5cccc(Cl)c5)nc34)nn2)cc1`, for which the IC50 was above 25 µM in the data set on MCF7; 24 µM with Huh-7; above 25 µM in the data set on Fibroblast; above 25 µM in the data set on MDA-MB-231; above 25 µM in the data set with PC-3; above 25 µM with NCI-H727. In addition, the values for the IC50 in the data set with Caco-2 and in the data set with HCT-116 were 24 µM and above 25 µM, respectively. For the same molecule, the Activity in [1] was 100%; in [2], 100%; in data set [3], 86%; in data set [4] it was 95%; in data set [6], 87%; in data set [7] it was 85%. Besides, the Activity in data set [8] is 100%. The activity at 10 µM in data set [5] turned out to be 99%.
For the molecule `O=[N+]([O-])c1ccc(Cn2cc(COc3cccc4cnc(Nc5cccc(Cl)c5)nc34)nn2)cc1`, the Activity in [1] came out at 65%; in [2], 90%; in data set [3] it was 77%; in data set [4] it was 72%; in data set [6] it was 60%; in data set [7] it was 39%. Besides, in [8], the Activity amounted to 76%. Moreover, in [5], the activity at 10 µM came to 88%.
On to `O=[N+]([O-])c1ccc(-n2cc(COc3cccc4cnc(Nc5cccc(Cl)c5)nc34)nn2)cc1`, for which the Activity in data set [1] is 86%; in [2], 94%; in data set [3], 79%; in data set [4] it was 63%; in data set [6], 87%; in data set [7] it was 26%. The Activity in [8] turned out to be 100%. Also, the activity at 10 µM in data set [5] stood at 100%.
As for `COc1ccc(-n2cc(COc3cccc4cnc(Nc5cccc(Cl)c5)nc34)nn2)cc1`, the Activity in data set [1] was determined as 86%; in [2] it was 100%; in [3], 69%; in data set [4], 100%; in data set [6] it was 47%; in data set [7] it was 70%. The Activity in data set [8] was found to be 100%. Also, the activity at 10 µM in data set [5] came out at 94%.
Consider `Clc1cccc(Nc2ncc3cccc(OCc4cn(Cc5ccccc5)nn4)c3n2)c1`, for which the Activity in data set [1] was 79%; in data set [2] it was 87%; in [3], 84%; in [4], 100%; in data set [6], 48%; in data set [7] it was 65%. Moreover, the Activity in data set [8] came to 83%. Further, in data set [5], the activity at 10 µM is 81%.
